Measured values as given in patent publication US12612661B2, “Compositions and methods for assessing the efficacy of inhibitors of neurotransmitter transporters” (DENOVO BIOPHARMA LLC, priority 2020, dated 2026).

Key:
C. elegans = details: oxidative stress; ANK3/unc-44 expression necessary; cited from earlier work
DAT = molecular target: T1, DAT (Homo sapiens, UniProt Q01959); assay: In vitro competition binding, membranes from HEK cell lines overexpressing DAT; details: radioligand at its Kd concentration; IC50 only in FIG. 1A table
T1 construct: expressed in transfected cells; host or cells: HEK cell line overexpressing the transporter; membranes
Text: (§1) FIG. 1 depicts exemplary DB104 structure, preclinical result, and clinical trial design. […] In vitro Binding Result: Competition binding experiments were utilized to determine the in vitro binding potencies (IC50 values) of BMS-820836 for SERT, DAT, and NET. Membranes prepared from human embryonic kidney (HEK) cell lines overexpressing each transporter were employed in the assays. Radioligands were used at their respective affinity constant (Kd) concentrations for each transporter to enable direct comparisons of the IC50 values between assays. Monoamine Reupdate inhibition: Cell-based assays were used to determine the ability of BMS-820836 to inhibit reuptake of 3H-labeled dopamine ([^3H]DA), norepinephrine ([^3H]NE), and serotonin ([^3H]5-HT).

HEK293/hDAT cells = molecular target: T2, HEK293/hDAT cells (Homo sapiens, UniProt Q01959); assay: Cell-based monoamine reuptake inhibition, [3H]DA uptake; details: IC50 only in FIG. 1A table
T2 construct: expressed in transfected cells; host or cells: HEK293/hDAT cells
Text: as §1

NET = molecular target: T3, NET (Homo sapiens, UniProt P23975); assay: In vitro competition binding, membranes from HEK cell lines overexpressing NET; details: radioligand at its Kd concentration; IC50 only in FIG. 1A table
T3 construct: expressed in transfected cells; host or cells: HEK cell line overexpressing the transporter; membranes
Text: as §1

patients with MDD [1] = details: overall population, CN162006 and CN162007; cited from earlier work
SERT = molecular target: T4, SERT (Homo sapiens, UniProt P31645); assay: In vitro competition binding, membranes from HEK cell lines overexpressing SERT; details: radioligand at its Kd concentration; IC50 only in FIG. 1A table
T4 construct: expressed in transfected cells; host or cells: HEK cell line overexpressing the transporter; membranes
Text: as §1

patients with MDD [2] = assay: Phase 2b efficacy studies CN162006 and CN162007, MADRS total score, analysed by rs12217173 genotype; type: in vivo, human
Procedure: The Phase 2b program for DB104 consists of two efficacy studies (CN162006 and CN162007), and both efficacy studies have a similar design and include patients with MDD. CN162006 is flexible-dose study where patients with a history of inadequate response to at least one but less than four antidepressants and one prospective treatment (duloxetine) are switched to flexibly-dosed DB104 (0.5-2 mg/d) or remain on duloxetine (Bhagwagar Z. et al. 2015). CN162007 is a fixed dose, dose-response study where patients with a history of inadequate response to at least one but less than four antidepressants and one prospective treatment (duloxetine/escitalopram) are switched to fixed doses of DB104 (0.25, 0.5, 1, 2 mg/day) or remain on duloxetine/escitalopram (FIG. 1B and 1C). […] (Bhagwagar Z. et al. 2015.)
We were provided with a large number of whole blood samples that were collected from the above phase II clinical trials (CN162-006 and CN162-007), and these samples corresponded to 233 unique patients that had received DB104 and completed the trial adequately to measure their response to treatment. Thus, germline DNA samples extracted from blood of patients enrolled in these two trials were used to identify pharmacogenetic biomarker for DB104. For the discovery phase, 188 samples were selected, and the remaining 45 samples would be left for validating any potential SNPs using PCR. The discover and validation datasets were balanced for race and dose/trial number. In discovery phase, 188 samples from DB104 treatment group were genotyped using the Illumina 4.5 million whole genome SNP arrays. Two (2) out of the 188 samples failed QC and were excluded from the genome-wide analysis but added to the validation set. From this genome wide screen from 186 samples, we have identified SNP rs12217173 which has a p-value of 6.609×10^−8, which is very close to genome-wide significance cut-off of 5×10^−8, especially given the limited sample size of this study.
To confirm the finding of rs12217173 as possible pharmacogenetic biomarker to predict DB104 efficacy, we next measured its genotype with Taqman SNP assay using the validation set which consists 47 patients, including two additional samples failed in genome-wide scan QC but passed real time PCR QC. […] Thus, patients with GG genotype were defined as the responders and patients carrying AA or AG genotype are defined as non-responders to DB104 treatment.
To examine whether rs12217173 is merely a prognostic biomarker for the disease instead of specific pharmacogenomic biomarker for DB104, DNA samples from 182 patients from the control group treated with duloxetine/escitalopram were genotyped using the Taqman SNP assays. […] Therefore, rs12217173 associated improvement in MADRS is related to DB104 treatment, and rs12217173 appears to be a pharmacogenomics biomarker for predicting DB104's anti-depression activity, and thus it is named as DGM4 (Denovo Genomic Marker 4).
CN162006 is flexible-dose study where DB104 doses ranged from 0.5-2 mg/d, and CN162007 is a fixed dose, dose-response study where patients were treated with doses of DB104 at 0.25, 0.5, 1, or 2 mg/day. Due to the limitation on samples available for the genome-wide study, the analysis described in previous section was not treating patients taking different doses of DB104 differently. In order to refine our analysis, we have further evaluated the effect of DB104 dose in these two studies. In CN162006, the mean and median average dose per day is 1.5 mg, and 94% patients received doses of 1 to 2 mg per day.

[3] = phase 2 clinical studies; cited from earlier work
[4] = GG genotype, week 5 and 6, excluding 0.25 and 0.5 mg

T2 sequence (Q01959 whole entry): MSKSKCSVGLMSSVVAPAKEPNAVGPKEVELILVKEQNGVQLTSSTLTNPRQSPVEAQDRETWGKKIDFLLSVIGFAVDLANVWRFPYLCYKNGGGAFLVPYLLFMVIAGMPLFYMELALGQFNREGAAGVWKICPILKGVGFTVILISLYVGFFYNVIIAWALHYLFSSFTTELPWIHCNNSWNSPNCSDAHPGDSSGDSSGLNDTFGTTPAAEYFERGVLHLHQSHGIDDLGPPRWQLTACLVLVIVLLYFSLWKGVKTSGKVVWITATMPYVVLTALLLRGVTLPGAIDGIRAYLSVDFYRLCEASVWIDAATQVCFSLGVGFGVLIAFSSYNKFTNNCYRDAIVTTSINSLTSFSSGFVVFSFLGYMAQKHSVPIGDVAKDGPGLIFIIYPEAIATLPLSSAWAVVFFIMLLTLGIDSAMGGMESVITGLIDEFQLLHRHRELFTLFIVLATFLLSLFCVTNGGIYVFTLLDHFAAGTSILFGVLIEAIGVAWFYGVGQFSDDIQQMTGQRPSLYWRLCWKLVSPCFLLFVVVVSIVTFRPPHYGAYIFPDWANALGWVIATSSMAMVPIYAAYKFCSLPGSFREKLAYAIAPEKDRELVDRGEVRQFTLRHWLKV
T1 sequence (Q01959 whole entry): as above
T3 sequence (P23975 whole entry): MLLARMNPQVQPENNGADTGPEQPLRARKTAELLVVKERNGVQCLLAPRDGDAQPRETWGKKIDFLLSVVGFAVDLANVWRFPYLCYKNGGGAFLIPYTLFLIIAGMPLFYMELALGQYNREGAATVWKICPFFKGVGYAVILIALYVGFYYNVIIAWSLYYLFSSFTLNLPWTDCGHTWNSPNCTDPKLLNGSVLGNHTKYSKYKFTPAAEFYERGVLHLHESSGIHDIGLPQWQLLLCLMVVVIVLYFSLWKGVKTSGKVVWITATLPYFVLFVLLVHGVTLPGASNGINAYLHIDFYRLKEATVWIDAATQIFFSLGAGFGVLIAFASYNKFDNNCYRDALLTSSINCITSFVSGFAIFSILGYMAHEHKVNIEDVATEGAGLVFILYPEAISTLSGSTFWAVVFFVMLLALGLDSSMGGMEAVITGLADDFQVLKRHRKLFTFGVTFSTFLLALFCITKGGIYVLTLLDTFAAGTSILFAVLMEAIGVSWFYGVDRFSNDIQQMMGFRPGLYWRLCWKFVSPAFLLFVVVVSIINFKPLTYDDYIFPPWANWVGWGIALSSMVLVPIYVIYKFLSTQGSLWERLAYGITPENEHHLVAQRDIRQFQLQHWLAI
T4 sequence (P31645 whole entry): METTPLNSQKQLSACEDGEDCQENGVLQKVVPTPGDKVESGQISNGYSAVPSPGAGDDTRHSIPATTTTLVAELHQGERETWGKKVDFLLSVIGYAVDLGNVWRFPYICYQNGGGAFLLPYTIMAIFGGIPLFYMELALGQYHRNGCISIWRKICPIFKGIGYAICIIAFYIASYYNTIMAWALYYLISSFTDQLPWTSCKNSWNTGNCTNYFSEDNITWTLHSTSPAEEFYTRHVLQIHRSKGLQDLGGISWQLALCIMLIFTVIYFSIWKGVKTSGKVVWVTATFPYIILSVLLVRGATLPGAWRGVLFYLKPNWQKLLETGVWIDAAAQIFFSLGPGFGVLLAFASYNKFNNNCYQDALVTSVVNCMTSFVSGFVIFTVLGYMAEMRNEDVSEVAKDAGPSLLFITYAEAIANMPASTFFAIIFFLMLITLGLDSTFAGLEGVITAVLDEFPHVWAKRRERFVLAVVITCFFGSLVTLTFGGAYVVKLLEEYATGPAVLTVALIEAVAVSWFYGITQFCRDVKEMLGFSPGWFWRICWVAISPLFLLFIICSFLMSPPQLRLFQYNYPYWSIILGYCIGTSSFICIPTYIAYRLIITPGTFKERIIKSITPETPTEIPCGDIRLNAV

## CN1CCN2c3ccccc3Cc3ccccc3C2C1 (centres unmarked) [mianserin]
C. elegans
  lifespan: increase lifespan

## CN1Cc2cc(-c3ccc(N)nn3)ccc2[C@H](c2ccc3ccccc3c2)C1 [DB104, liafensine]
DAT
  saturation of DAT binding sites in competition binding: completely saturated
HEK293/hDAT cells
  inhibition of uptake of [3H]DA: potently and completely inhibited
NET
  saturation of NET binding sites in competition binding: completely saturated
Patients with MDD [1]
  MADRS total score change from baseline at week 6 (primary endpoint), DB104 vs. continuation of duloxetine/escitalopram: neither study demonstrated significant improvement
SERT
  saturation of SERT binding sites in competition binding: completely saturated
Patients with MDD [2]; CN162007, 0.25, 0.5, 1, 2 mg/day
  efficacy by dose in patients carrying GG genotype: 1 mg and 2 mg group exhibited similar efficacy, and both are much better than 0.25 mg and 0.5 mg group
Patients with MDD [2]; [4]
  MADRS Remission Rate vs SOC treatment group: statistical significance
  MADRS Response Rate vs SOC treatment group: statistical significance
  MADRS total score reduction vs SOC treatment group: statistical significance
Patients with MDD [2]; discovery and validation datasets combined
  MADRS score change, GG vs AA or AG genotype: much improved MADRS score change
Patients with MDD [2]; discovery set (186 patients), GG allele of rs12217173
  improvement on MADRS change from the baseline, GG vs AA or AG genotype and vs standard of care: much better improvement
Patients with MDD [2]; pooled 006 and 007 at 1 mg and 2 mg, all genotypes, any time point
  MADRS, DB104 treatment group vs SOC treatment group: no significant differences
Patients with MDD [2]; validation set (47 patients), DB104-treated patients carrying GG at rs12217173
  MADRS score reduction from the baseline: ~16 points
Patients with MDD [2]; validation set, DB104-treated patients carrying AA or AG genotype
  MADRS score reduction from the baseline: eight
[3]
  discontinuations due to adverse events: no evidence of dose-dependent discontinuations due to adverse events
  tolerability: well tolerated
